ChEMBL document CHEMBL3045702, “Cytotoxic lipid esters from Peucedanum ledebourielloides” (Med Chem Res, 2010)
≈ marks a conversion by molar mass, not a printed value.

Experiments:
Type in all cases: functional, cell-based
[1] = tested on: HL-60; experiment: Cytotoxicity against Homo sapiens (human) HL60 cells by MTT assay
[2] = tested on: HT-29; experiment: Cytotoxicity against Homo sapiens (human) HT-29 cells by MTT assay
[3] = tested on: SGC-7901; experiment: Cytotoxicity against Homo sapiens (human) SGC7901 cells by MTT assay

Structure (SMILES) | IC50 [1] [µg/mL] | IC50 [2] [µg/mL] | IC50 [3] [µg/mL]
O=c1[nH]cc(F)c(=O)[nH]1 [FLUOROURACIL] | 25.4 (≈ 195 µM) | 10.3 (≈ 78.9 µM) | 0.58 (≈ 4.46 µM)
CCCCCCCCCCCCCCCC(=O)OCC(CO[C@@H]1O[C@H](CO)[C@@H](O)[C@H](O)[C@H]1O)OC(=O)CCCCCCCCCCCCCCC (some centres undefined) | 27.7 (≈ 37.9 µM) | 0.21 (≈ 0.287 µM) | 4.9 (≈ 6.7 µM)
CCCCCCCCCCCCCCCC(=O)OCCCCCCOC(=O)CCCCCCCCCCCCCCC | 0.49 (≈ 0.824 µM) | 34.2 (≈ 57.5 µM) | 1.6 (≈ 2.69 µM)
